The target in this assay is T1, GCase (Homo sapiens, UniProt P04062).
T1 construct: endogenous in cells; host or cells: HeLa cells
T1 sequence (P04062 40-536): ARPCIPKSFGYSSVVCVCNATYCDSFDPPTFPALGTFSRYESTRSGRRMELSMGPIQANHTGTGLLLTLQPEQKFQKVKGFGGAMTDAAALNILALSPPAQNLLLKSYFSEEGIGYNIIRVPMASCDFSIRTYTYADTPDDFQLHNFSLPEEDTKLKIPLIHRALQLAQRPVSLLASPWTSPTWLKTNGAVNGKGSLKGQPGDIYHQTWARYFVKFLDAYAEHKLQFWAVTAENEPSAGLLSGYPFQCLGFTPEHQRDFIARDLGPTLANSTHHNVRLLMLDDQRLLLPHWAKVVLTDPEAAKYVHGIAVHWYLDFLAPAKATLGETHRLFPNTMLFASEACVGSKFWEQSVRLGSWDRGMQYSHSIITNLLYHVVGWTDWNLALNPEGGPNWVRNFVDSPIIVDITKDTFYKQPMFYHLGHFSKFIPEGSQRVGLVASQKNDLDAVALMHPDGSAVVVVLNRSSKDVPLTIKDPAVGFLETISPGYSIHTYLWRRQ
Kind of assay: activation of GCase in a live cell PFB assay in HELA cells. It counts as cell-based.

As for `COCCNc1nc2cc(C(=O)N3CCC(O)(CO)CC3)ccc2n1C` [Compound 486], the EC50 (as a rule, the midpoint of the concentration-response curve) is 10 to 50 µM.
